The values that follow are results of earlier work, collected in paper PMC7362765 (Accounts of chemical research, 2019).

For the data set, the system named is DF3. Briefly: oxidation to quinone […], saturation kinetics. The format is biochemical, synthetic construct. The following applies: diiron form, ambient O2; recounted from the authors' own ref 19.

On to `CC(C)(C)c1cc(O)c(O)c(C(C)(C)C)c1` [compound 6, 3,5-di-tert-butylcatechol], for which the Michaelis constant (Km) is 2100 µM.
